Test results published in article PMC9035832, “Synthesis and Evaluation of a Non-Peptide Small-Molecule Drug Conjugate Targeting Integrin αVβ3” (Frontiers in Chemistry, 2022).
Numbered stars: 1 amine (or outer) side, 2 acyl side, 3 side chain; on linkers, the order of the positions; unused ones are H or OH. Bridge positions count the residues as written; N and C are the ends. Square brackets hold non-standard residues; d marks the D form. Peptide text beside a SMILES is read from it. I, II: the chains in the order shown. * marks the point of attachment. Dolaproine = CO[C@@H]([C@@H]1CCCN1)[C@@H](C)C(=O)O; Dil = CC[C@H](C)[C@H](NC)[C@@H](CC(=O)O)OC; X1 = O=C(CCCc1cn(CCOCCOCCN[*:1])nn1)[*:2]; PABC = O=C(OCc1ccc(N[*:1])cc1)[*:2]; X2 = C[C@@H](N*)[C@@H](O)c1ccccc1; Suc = O=C(CCC(=O)[*:2])[*:1]; NMeV = CN[C@H](C(=O)O)C(C)C

Key:
[1] = system: WM115 cells; assay: Cell viability assay (resazurin based); conditions: for IC50: 3 days incubation, resazurin, read-out: Cytotoxicity IC50; for fold less cytotoxic than MMAE: relative to free MMAE
Protocol: (§1) WM115 cells were cultivated in the MEM medium (with 10% fetal bovine serum, 50 μg/ml gentamycin, and 0.5 mM sodium pyruvate) at 37°C and 5.3% CO2-humidified air in an incubator. The cells were seeded in a sterile flat-bottom cell culture 96-well plate (Sarstedt) in a density of 10,000 cells/well (100 µl/well) and incubated for 1 day as described. A serial dilution (1:3 dilution) of the compounds and the standard (cryptophycin-52) in the medium was prepared and transferred to the assay plate (100 µl/well), followed by incubation for 3 days as described. Afterward, a solution of resazurin (175 μM, 30 µl/well) was added, followed by incubation for 6 h. Subsequently, the fluorescence was measured with a TecanReader (Excitation: 530 nm; Emission: 588 nm) and plotted and analyzed using OriginPro® 2020b where the inflection point of a DoseResp fit described the IC50 value. […]
(§2) WM115 cells were cultivated in MEM medium (with 10 % foetal bovine serum, 50 µg/mL gentamycin, 0.5 mM sodium pyruvate) at 37 °C and 5.3 % CO2-humidified air in an incubator. The cells were seeded in a sterile flat-bottom cell culture 96-well plate (Sarstedt) in a density of 10000 cells/well (100 µL/well) and incubated for 1 day as described. A dilution series (1:3 dilution) of the compounds and the standard (cryptophycin-52) in medium was prepared and transferred to the assay plate (100 µL/well) followed by incubation for 3 d as described. Afterwards a solution of resazurin (175 µM, 30 µL/well) was added followed by incubation for 6 h. Subsequently, the fluorescence was measured with a TecanReader (Excitation: 530 nm; Emission: 588 nm) as well as plotted and analysed using OriginPro® 2020b where the inflection point of a DoseResp fit describes the IC50 value.

[2] = system: M21-L cells; assay: Cell adhesion assay on vitronectin, αVβ3-negative cells; type: cell-based; conditions: for IC50: adhesion of M21-L cells to vitronectin, read-out: M21-L (αV−, αVβ3−) IC50, cell adhesion
Protocol: (§3) WM115 cells were cultivated and used in the MEM Eagle medium (Pan Biotech P04-08500 with 10% fetal bovine serum, 50 μg/ml gentamycin, and 0.5 mM sodium pyruvate) and M21-L cells in the RPMI medium (Pan Biotech P04-16500 with 10% fetal bovine serum, 1% Pen-Strep). A flat-bottom MaxiSorp Nunc 96-well plate was coated with recombinant human vitronectin (100 µl/well, 1 μg/ml, Peprotech) in the PBS buffer (137 mM NaCl, 2.7 mM KCl, 10 mM Na2HPO4, 2 mM KH2PO4, pH 7.4) at 4°C and blocked at the following day by adding a solution of fatty acid free milk powder in PBS buffer (5 w/v %, 100 µl/well) at 4°C. The WM115 and M21-L cells were washed with the PBS buffer, detached with Accutase solution (5 ml, Pan Biotech P10-21100) at 37°C for 5 min, and then diluted with the medium (15 ml). After centrifugation (850 rpm, 6 min), the resulting cell pellet was resuspended with fluorescein diacetate in the medium (fluorescein diacetate 1.5 mg/ml, cell density 5·× 10^5 cells/ml) and incubated for 30 min at 37°C in the dark. The cells were washed twice with the medium and then resuspended in the medium (cell density 5 × 10^5 cells/ml). Afterward, a solution of CaCl2, MnCl2, and MgCl2 (each 100 mM) in the PBS buffer (90 µl) was transferred to the cells and incubated for 30 min on ice in the dark. In the meantime, a dilution series of the compounds in the medium (1:3 dilution) was prepared, and 240 µl were transferred to Eppendorf tubes. Pure medium was used as a positive control. Cell suspension (240 µl) was added to each tube of the dilution series and the control, followed by incubation at 37°C for 30 min in the dark. The assay plate was discharged and washed with 200 µl/well medium. Then the cell suspension with different compound concentrations was added to the assay plate (100 µl/well) and incubated for 60 min at 37°C in the dark. Afterward, the assay plate was washed with the medium (3 × 100 µl/well), and finally, the medium (100 µl/well) was added and the fluorescence was measured with a TecanReader (Excitation: 480 nm; Emission: 520 nm). The determined values were plotted and analyzed using OriginPro® 2020b where the inflection point of a DoseResp fit described the IC50 value.
WM115 cells were cultivated and used in MEM Eagle medium (Pan Biotech P04-08500 with 10 % foetal bovine serum, 50 µg/mL gentamycin, 0.5 mM sodium pyruvate) and M21-L cells in RPMI medium (Pan Biotech P04-16500 with 10 % foetal bovine serum, 1 % Pen-Strep). Overnight a flat-bottom MaxiSorp Nunc 96-well plate was coated with recombinant human vitronectin (100 µL/well, 1 µg/mL, Peprotech) in PBS buffer (137 mM NaCl, 2.7 mM KCl, 10 mM Na2HPO4,2 mM KH2PO4, pH 7.4) at 4 °C and blocked at the following day by adding a solution of fatty acid free milk powder in PBS buffer (5 w/v %, 100 µL/well) at 4 °C. […]

[3] = system: WM115 cells; assay: Cell adhesion assay on vitronectin, αVβ3-positive cells; type: cell-based; conditions: adhesion of WM115 cells to vitronectin
Protocol: as §3, with “Then the cell suspension with different compound concentrations was added to the assay plate (100 µl/well) and incubated for 60 min at 37°C in the dark.” left out, “value. […]” for “value.”

[4] = Cell viability assay (resazurin based); conditions: WM115 cells, 3 days incubation, resazurin; read-out: Cytotoxicity IC50
Protocol: as §1, §2

CC[C@H](C)[C@@H]([C@@H](CC(=O)N1CCC[C@H]1[C@H](OC)[C@@H](C)C(=O)N[C@H](C)[C@@H](O)c1ccccc1)OC)N(C)C(=O)[C@@H](NC(=O)[C@H](C(C)C)N(C)C(=O)OCc1ccc(NC(=O)[C@H](C)NC(=O)[C@@H](NC(=O)[C@H](CCC(=O)O)NC(=O)CCCc2cn(CCOCCOCCNC(=O)CCC(=O)NCCCC[C@@H]3NC(=O)[C@@H](Cc4ccccc4)NC(=O)[C@H](CC(=O)O)NC(=O)CNC(=O)[C@H](CCCNC(=N)N)NC3=O)nn2)C(C)C)cc1)C(C)C [compound 16]
IC50 [1]: 91.4 ± 12.3 nM | fold less cytotoxic than MMAE [1]: about 50 fold | IC50 [2]: > 100000 nM | IC50 [3]: 2650 ± 350 nM

CC[C@H](C)[C@@H]([C@@H](CC(=O)N1CCC[C@H]1[C@H](OC)[C@@H](C)C(=O)N[C@H](C)[C@@H](O)c1ccccc1)OC)N(C)C(=O)[C@@H](NC(=O)[C@H](C(C)C)N(C)C(=O)OCc1ccc(NC(=O)[C@H](C)NC(=O)[C@@H](NC(=O)[C@H](CCC(=O)O)NC(=O)CCCc2cn(CCOCCOCCNC(=O)CCC(=O)NCCCC[C@@H]3NC(=O)[C@@H](Cc4ccccc4)NC(=O)[C@H](CC(=O)O)NC(=O)[C@H](C)NC(=O)[C@H](CCCNC(=N)N)NC3=O)nn2)C(C)C)cc1)C(C)C [compound 17] (I: [X1]EVA[PABC][NMeV]V[Dil][Dolaproine]-X2 / II: cyclo(AD[dF]KR); linker I:N-II:4 via Suc)
IC50 [1]: 264 ± 24.6 nM | fold less cytotoxic than MMAE [1]: 150 fold | IC50 [2]: > 100000 nM | IC50 [3]: 79100 ± 1690 nM

CC[C@H](C)[C@@H]([C@@H](CC(=O)N1CCC[C@H]1[C@H](OC)[C@@H](C)C(=O)N[C@H](C)[C@@H](O)c1ccccc1)OC)N(C)C(=O)[C@@H](NC(=O)[C@H](C(C)C)N(C)C(=O)OCc1ccc(NC(=O)[C@H](C)NC(=O)[C@@H](NC(=O)[C@H](CCC(=O)O)NC(=O)CCCc2cn(CCOCCOCCOc3ccc(C(=O)N[C@@H](Cc4ccc(OCCCCCNC5=NCCN5)cc4)C(=O)O)cc3)nn2)C(C)C)cc1)C(C)C [compound 18]
TI (RAD/RGD), targeting index ([1]; TI = [IC50 (17)]/[IC50 (compound)]): 2.8 | fold less cytotoxic than MMAE [1]: about 50 fold | IC50 [4]: 95 ± 25 nM | effect on cell adhesion of αVβ3-negative cells ([2]; M21-L cell line, adhesion to vitronectin): no effect | IC50 [2]: > 100000 nM | IC50 [3]: 8050 ± 510 nM
